Reference: patent US4342751A (priority 1981, dated 1982)
Where two headings read alike, the source gives them in different places. Numbered stars: 1 amine (or outer) side, 2 acyl side, 3 side chain; on linkers, the order of the positions; unused ones are H or OH. Square brackets hold non-standard residues; d marks the D form. Peptide text beside a SMILES is read from it. X1 = CCC(N[*:1])C(C)C(=O)O[C@H](C(=O)[*:2])[C@@H](C)CC; X2 = C[C@H](N[*:1])C(=O)C(C)(C)C(=O)[*:2]; NMeY = CN[C@@H](Cc1ccc(O)cc1)C(=O)O; NMeI = CC[C@H](C)[C@H](NC)C(=O)O; NMeV = CN[C@H](C(=O)O)C(C)C

Tests used:
Phytophthora infestans [1] = assay type: cell-based; settings: for Zone of Growth: control zone 12
Pythium aphanidermatum = assay: In vitro agar-dilution test; assay type: cell-based; parameters: Zone of Growth: unit not given here
Procedure: (§1) In these tests 100× solutions of majusculamide C in 95% aqueous ethanol were used. Majusculamide C solution (0.1 ml) and melted agar (9.9 ml) at 50° C. were mixed. An inoculum plug (6-mm diameter) was placed in the center of each plate; the radial growth of the colony was measured. Zone of growth was measured from the edge of the plug to the edge of the colony.

Aphanomyces euteiches = assay: In vitro agar-dilution test; assay type: cell-based; parameters: Zone of Growth: unit not given beside the values; settings: for Zone of Growth: control zone 29
Procedure: as §1

[2] = swimmer's itch; Mynderse et al., Science 196, 538-540 (1977); cited from earlier work
Solubility in solvents = assay type: physicochemical
[3] = system: Pythium ultimum Ridomil-resistant strain; assay: In vitro agar-dilution test, Ridomil-resistant strain; assay type: cell-based; settings: for Zone of Growth: control zone 39
[4] = system: Phytophthora capsici Ridomil-Sensitive strain; assay: In vitro agar-dilution test, Ridomil-sensitive strain; assay type: cell-based; settings: for Zone of Growth: control zone 27
Phytophthora infestans [5] = assay type: in vivo; parameters: key to Disease Control rating, Tomato Late Blight: 1=severe disease; 5=no disease; settings: for Disease Control rating, Tomato Late Blight: 1-5 scale, average of two replicates
[6] = system: Tomato leaves (C. V. Rutgers); settings: for Phytotoxicity rating, tomato leaves: average of two replicates
[7] = system: Phytophthora capsici Ridomil-resistant strain; assay: In vitro agar-dilution test, Ridomil-resistant strain; assay type: cell-based; settings: for Zone of Growth: control zone 28
[8] = system: Pythium ultimum Ridomil-sensitive strain; assay: In vitro agar-dilution test, Ridomil-sensitive strain; assay type: cell-based; settings: for Zone of Growth: control zone 39
Rhizoctonia solani = assay: In vitro agar-dilution test; assay type: cell-based; settings: for Percent Inhibition / Zone of Growth: Table 5; for Zone of Growth: control zone 27
Procedure: as §1

Sclerotinia homoeocarpa = assay: In vitro agar-dilution test; assay type: cell-based; settings: for Percent Inhibition / Zone of Growth: Table 5; for Zone of Growth: control zone 23
Procedure: as §1

[9] = 0.1 ppm, Table 7 experiment, control zone 32
[10] = 1.0 ppm, Table 7 experiment, control zone 32
[11] = calculated from Table 9 results
[12] = calculated from Table 7 results
[13] = calculated from Table 5 results

For `COCC(=O)N(c1c(C)cccc1C)C(C)C(=O)OC` (centres unmarked) [Ridomil (tech.), reference compound], the “Percent Inhibition” value (Phytophthora infestans [1]; 0.1 ppm) was 50%, the “Zone of Growth” value (Phytophthora infestans [1]; 0.1 ppm) was 6 and the “Percent Inhibition” value (Phytophthora infestans [1]; 1.0 ppm) was 83%. For the same compound, the “Zone of Growth” value (Phytophthora infestans [1]; 1.0 ppm) was 2, the “Percent Inhibition” value (Pythium aphanidermatum; 0.1 ppm, Table 7 experiment) was 34% and the “Zone of Growth” value (Pythium aphanidermatum; [9]) was 21. The “Percent Inhibition” value (Pythium aphanidermatum; 1.0 ppm, Table 7 experiment) was 94%, the “Zone of Growth” value (Pythium aphanidermatum; [10]) was 2 and the “Percent Inhibition” value (Aphanomyces euteiches; 0.1 ppm) was 7%. For the same compound, the “Zone of Growth” value (Aphanomyces euteiches; 0.1 ppm) was 27, the “Percent Inhibition” value (Aphanomyces euteiches; 1.0 ppm) was 3% and the “Zone of Growth” value (Aphanomyces euteiches; 1.0 ppm) was 28.
In the case of `CO[C@@H](CC[C@H](C)[C@H]1O[C@@]23C[C@H](OC(=O)C[C@H]([C@@H](C)O)OC(=O)C[C@](O)(O2)[C@H](C)CC3(C)C)[C@@H]1C)c1cccc(O)c1` [debromoaplysiatoxin], the Contact dermatitis [2] is given as “causes a severe contact dermatitis”.
In the case of `CCC1NC(=O)[C@H](C)NC(=O)C(C)(C)C(=O)[C@H](C)NC(=O)[C@H](Cc2ccc(OC)cc2)N(C)C(=O)[C@H](C(C)C)N(C)C(=O)CNC(=O)[C@H]([C@@H](C)CC)N(C)C(=O)CNC(=O)[C@H]([C@@H](C)CC)OC(=O)C1C` (some centres unmarked) [Majusculamide C, majusculamide C] (cyclo(A[X1]G[NMeI]G[NMeV][NMeY](Me)[X2])), the “Solubility in organic solvents” value (Solubility in solvents; methanol, dichloromethane, and acetone) is reported as “soluble”, the Solubility in water (Solubility in solvents; water) is reported as “not soluble” and the “Percent Inhibition” value ([3]; 0.1 ppm) is reported as 60%. The “Zone of Growth” value ([3]; 0.1 ppm) was 15.5, the “Percent Inhibition” value ([3]; 1 ppm) was 91% and the “Zone of Growth” value ([3]; 1 ppm) was 3.5. For the same compound, the “Growth observation (footnote b)” value ([3]; 10 ppm) was “No growth on plug”, the “Percent Inhibition” value ([3]; 10 ppm) was 100% and the “Zone of Growth” value ([3]; 10 ppm) was 0. The ED50 [3, 11] was under 0.5 ppm, the “Percent Inhibition” value (Phytophthora infestans [1]; 0.01 ppm) was 17% and the “Zone of Growth” value (Phytophthora infestans [1]; 0.01 ppm) was 10. For the same compound, the “Percent Inhibition” value (Phytophthora infestans [1]; 0.1 ppm) was 42%, the “Zone of Growth” value (Phytophthora infestans [1]; 0.1 ppm) was 7 and the “Percent Inhibition” value (Phytophthora infestans [1]; 1.0 ppm) was 46%. For the same compound, the “Zone of Growth” value (Phytophthora infestans [1]; 1.0 ppm) was 6.5, the “Percent Inhibition” value (Phytophthora infestans [1]; 10.0 ppm) was 100% and the “Zone of Growth” value (Phytophthora infestans [1]; 10.0 ppm) was 0. For the same compound, the ED50 (Phytophthora infestans [1]; [12]) was 1.07 ppm, the “Percent Inhibition” value (Pythium aphanidermatum; 0.01 ppm, Table 7 experiment) was 6% and the “Zone of Growth” value (Pythium aphanidermatum; 0.01 ppm, Table 7 experiment, control zone 32) was 30. For the same compound, the “Percent Inhibition” value (Pythium aphanidermatum; 0.1 ppm, Table 7 experiment) was 62%, the “Zone of Growth” value (Pythium aphanidermatum; [9]) was 12 and the “Percent Inhibition” value (Pythium aphanidermatum; 1 ppm, Table 5 experiment) was 97%. For the same compound, the “Zone of Growth” value (Pythium aphanidermatum; 1 ppm, Table 5 experiment, control zone 28) was 1, the “Percent Inhibition” value (Pythium aphanidermatum; 1.0 ppm, Table 7 experiment) was 95% and the “Zone of Growth” value (Pythium aphanidermatum; [10]) was 1.5. The “Percent Inhibition” value (Pythium aphanidermatum; 10 ppm, Table 5 experiment) was 100%, the “Zone of Growth” value (Pythium aphanidermatum; 10 ppm, Table 5 experiment, control zone 28) was 0 and the “Percent Inhibition” value (Pythium aphanidermatum; 10.0 ppm, Table 7 experiment) was 100%. For the same compound, the “Zone of Growth” value (Pythium aphanidermatum; 10.0 ppm, Table 7 experiment, control zone 32) was 0, the “ED50 (effective dose to achieve 50% inhibition)” value (Pythium aphanidermatum; [13]) was under 1 ppm and the ED50 (Pythium aphanidermatum; [12]) was 0.07 ppm. The “Percent Inhibition” value ([4]; 0.1 ppm) was 46%, the “Zone of Growth” value ([4]; 0.1 ppm) was 14.5 and the “Percent Inhibition” value ([4]; 1 ppm) was 74%. For the same compound, the “Zone of Growth” value ([4]; 1 ppm) was 7, the “Percent Inhibition” value ([4]; 10 ppm) was 100% and the “Zone of Growth” value ([4]; 10 ppm) was 0. The ED50 [4, 11] was 0.45 ppm, the “Disease Control rating, Tomato Late Blight” value (“Disease Control rating” below) (Phytophthora infestans [5]; 6.25 ppm foliar spray) was 5 and the “Disease Control rating” value (Phytophthora infestans [5]; 25 ppm foliar spray) was 5. For the same compound, the “Disease Control rating” value (Phytophthora infestans [5]; 100 ppm foliar spray) was 5, the “Disease Control rating” value (Phytophthora infestans [5]; 400 ppm foliar spray) was 5 and the Control of fungus (Phytophthora infestans [5]; suitable tests, not specified, tomato late blight) was “control”. For the same compound, the “In vivo effectiveness against tomato late blight” value (Phytophthora infestans [5]; summary statement) was “effective”, the “Phytotoxicity rating, tomato leaves” value ([6]; 6.25 ppm foliar spray) was 0 and the “Phytotoxicity rating, tomato leaves” value ([6]; 25 ppm foliar spray) was 0. The “Phytotoxicity rating, tomato leaves” value ([6]; 100 ppm foliar spray) was 3.5, the “Phytotoxicity observation, tomato leaves (footnote b)” value ([6]; 400 and 100 ppm foliar spray) was “Evidence of chlorosis” and the “Phytotoxicity rating, tomato leaves” value ([6]; 400 ppm foliar spray) was 4. For the same compound, the “Percent Inhibition” value ([7]; 0.1 ppm) was 48%, the “Zone of Growth” value ([7]; 0.1 ppm) was 14.5 and the “Percent Inhibition” value ([7]; 1 ppm) was 84%. The “Zone of Growth” value ([7]; 1 ppm) was 4.5, the “Percent Inhibition” value ([7]; 10 ppm) was 98% and the “Zone of Growth” value ([7]; 10 ppm) was 0.5. For the same compound, the ED50 [7, 11] was 0.25 ppm, the “Percent Inhibition” value ([8]; 0.1 ppm) was 53% and the “Zone of Growth” value ([8]; 0.1 ppm) was 18.5. The “Percent Inhibition” value ([8]; 1 ppm) was 88%, the “Zone of Growth” value ([8]; 1 ppm) was 4.5 and the “Percent Inhibition” value ([8]; 10 ppm) was 100%. The “Zone of Growth” value ([8]; 10 ppm) was 0, the ED50 [8, 11] was under 0.1 ppm and the “Percent Inhibition” value (Rhizoctonia solani; 1 ppm) was 30%. The “Zone of Growth” value (Rhizoctonia solani; 1 ppm) was 19, the “Percent Inhibition” value (Rhizoctonia solani; 10 ppm) was 63% and the “Zone of Growth” value (Rhizoctonia solani; 10 ppm) was 10. For the same compound, the “ED50 (effective dose to achieve 50% inhibition)” value (Rhizoctonia solani; [13]) was 4 ppm, the Control of fungus (Rhizoctonia solani; suitable tests, not specified, Rhizoctonia damping-off) was “control” and the “Percent Inhibition” value (Sclerotinia homoeocarpa; 1 ppm) was 26%. The “Zone of Growth” value (Sclerotinia homoeocarpa; 1 ppm) was 17, the “Percent Inhibition” value (Sclerotinia homoeocarpa; 10 ppm) was 30% and the “Zone of Growth” value (Sclerotinia homoeocarpa; 10 ppm) was 16. The “ED50 (effective dose to achieve 50% inhibition)” value (Sclerotinia homoeocarpa; [13]) was over 10 ppm, the “Percent Inhibition” value (Aphanomyces euteiches; 0.01 ppm) was 7% and the “Zone of Growth” value (Aphanomyces euteiches; 0.01 ppm) was 27. The “Percent Inhibition” value (Aphanomyces euteiches; 0.1 ppm) was 7%, the “Zone of Growth” value (Aphanomyces euteiches; 0.1 ppm) was 27 and the “Percent Inhibition” value (Aphanomyces euteiches; 1.0 ppm) was 29%. For the same compound, the “Zone of Growth” value (Aphanomyces euteiches; 1.0 ppm) was 20.5, the “Percent Inhibition” value (Aphanomyces euteiches; 10.0 ppm) was 88% and the “Zone of Growth” value (Aphanomyces euteiches; 10.0 ppm) was 3.5. The ED50 (Aphanomyces euteiches; [12]) was 2.1 ppm.
